Consider three compounds from article PMC7515912, “Structural insight into the binding of human galectins to corneal keratan sulfate, its desulfated form and related saccharides” (Scientific Reports, 2020).

In one series the target is T1, Gal-7 (Homo sapiens, UniProt P47929).
T1 construct: made in house
In words: 1H-15N HSQC NMR titration of 15N-labeled Gal-7. In kind it is binding. How it is done: (§1) Uniformly ^15N-labeled Gal-3 (or Gal-7) was dissolved at a concentration of 20 μM in 20 mM potassium phosphate buffer at pH 6.9, made up using a 95% H2O/ 5% D2O mixture. ^1H–^15N HSQC NMR experiments were used to investigate binding of KS or KSDS to Gal-3[39] and Gal-7[90]. NMR experiments were performed at 30 °C on Bruker AVANCE III 700 MHz or 850 MHz spectrometers equipped with cryogenically-cooled z-gradient triple resonance probes. Chemical shift perturbations were monitored, using the sequence-specific ^1H and ^15N resonances assignments for human Gal-3, Gal-3 CRD, and Gal-7. Chemical shifts were internally referenced to DSS (4,4-dimethyl-4-silapentane-1-sulfonic acid). Raw data were converted and processed by using NMRPipe[91] and were analyzed by using NMRview[92].
Chemical shifts, δ, were referenced to 4,4-dimethyl-4-silapentane-1-sulfonic acid, and chemical shift differences (∆δ) were calculated as [(∆^1H)^2 + (0.25∆^15N)^2 ]^1/2. Intensity changes (∆Intensity) were calculated as (1 − Inti/Into), where Into is the initial resonance intensity and Inti is the intensity upon addition of KS or KSDS or another saccharide. Using this equation, a value of 1 means that that resonance is no longer observable, and 0 means the absence of resonance broadening, with a negative value indicating increased resonance intensity. […]

For series [1], the target named is T2, Gal-3 FL (full-length human Gal-3, residues 1–250) (Homo sapiens, UniProt P17931).
T2 construct: Full-length human Gal-3 (residues 1–250); made in house
T2 sequence (P17931 whole entry, the tested form may be a part): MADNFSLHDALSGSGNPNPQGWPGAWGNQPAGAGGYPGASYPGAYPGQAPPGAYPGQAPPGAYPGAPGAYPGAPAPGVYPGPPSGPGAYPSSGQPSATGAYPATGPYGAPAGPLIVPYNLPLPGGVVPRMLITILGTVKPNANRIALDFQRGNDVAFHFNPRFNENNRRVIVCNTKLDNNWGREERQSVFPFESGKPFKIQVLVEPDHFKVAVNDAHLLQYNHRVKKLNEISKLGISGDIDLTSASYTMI
In words: 1H-15N HSQC NMR titration of 15N-labeled full-length Gal-3. In kind it is binding. How it is done: as §1
(§2) Chemical shifts, δ, were referenced to 4,4-dimethyl-4-silapentane-1-sulfonic acid, and chemical shift differences (∆δ) were calculated as [(∆^1H)^2 + (0.25∆^15N)^2 ]^1/2. Intensity changes (∆Intensity) were calculated as (1 − Inti/Into), where Into is the initial resonance intensity and Inti is the intensity upon addition of KS or KSDS or another saccharide. Using this equation, a value of 1 means that that resonance is no longer observable, and 0 means the absence of resonance broadening, with a negative value indicating increased resonance intensity. In chemical shift or resonance broadening maps, the most perturbed resonances are defined as > 2SD above the average or > 1SD above the average. The 50% bound mark was taken from titration curves at 50% bound.

In series [2] the target is T3, Gal-3 CRD (residues 108–250) (Homo sapiens, UniProt P17931).
T3 construct: its Gal-3 CRD (residues 108–250); made in house
T3 sequence (P17931 108-250): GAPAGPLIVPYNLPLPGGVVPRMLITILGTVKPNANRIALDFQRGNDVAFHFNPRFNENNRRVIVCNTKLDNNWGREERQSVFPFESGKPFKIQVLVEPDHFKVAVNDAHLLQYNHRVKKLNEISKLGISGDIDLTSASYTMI
Kind of series: 1H-15N HSQC NMR titration of 15N-labeled Gal-3 CRD. In kind it is binding. How it is done:
as §1, §2

The target of series [3] is Gal-3 (full-length and CRD) (Homo sapiens, UniProt P17931). Kind of series: PFG NMR diffusion of KS as a function of Gal-3/KS molar ratio. The format is binding. How it is done:
(§3) For pulsed field gradient (PFG) NMR self-diffusion measurements, a solution was made up with KS (4 μM) in 20 mM potassium phosphate buffer with ^2H2O at pD 6.7 adjusted by addition of NaO^2H or ^2HCl. To this solution, ^15N/^13C-labeled Gal-3 (full-length and CRD) dissolved in the same buffer was added at increasing concentrations as molar ratios of [Gal-3]/[KS]. PFG NMR data were acquired at 30 ◦C on a Bruker AVANCE 700 spectrometer, essentially as previously described. For unrestricted diffusion of molecules in isotropic solutions, the PFG NMR signal amplitude, A, normalized to the signal in the absence of gradient pulses, is related to the diffusion coefficient D by Eq. (1):1 A=exp[-γ^2g^2Δ^2D(Δ-[…])]
(§4) where γ is the gyromagnetic ratio, g is the magnitude of the magnetic field gradient pulse, ∆ is the time between gradient pulses. Here, we set g = 1–75 G/cm, ∆ = 34.2 ms, with a longitudinal eddy-current delay of 100 ms. Each D value was determined from a series of 14 1D PFG NMR spectra (256 scans each) using different g values. To derive D values, the gradient-induced change in amplitude of KS resonances at 3.64 and 3.7 ppm was used. In this spectral region, KS resonance intensity was considerably greater than that from Gal-3. In order to decrease Gal-3 resonance intensity further, ^13CH and ^15NH resonances from labeled Gal-3 were not decoupled.

Series [4] is described as follows: PFG NMR self-diffusion of KS alone. The format is physicochemical. To be noted: KS 4 μM in the absence of Gal-3; 20 mM potassium phosphate in 2H2O, pD 6.7, 30 °C. The protocol: as §3, §4

Like-named read-outs stand apart in the source and are kept apart here.

T1 sequence (P47929 whole entry): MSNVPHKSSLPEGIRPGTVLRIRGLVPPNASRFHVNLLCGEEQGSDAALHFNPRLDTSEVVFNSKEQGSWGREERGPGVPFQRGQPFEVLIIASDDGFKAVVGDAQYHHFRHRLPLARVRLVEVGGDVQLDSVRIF
Gal-3 (full-length and CRD), sequence (P17931 108-250 limits assumed): as the sequence (P17931 108-250) above

In the case of `CC(=O)N[C@H]1[C@H](O[C@H]2[C@@H](O)[C@@H](CO)O[C@@H](O[C@H]3[C@H](O)[C@@H](O)C(O)O[C@@H]3CO)[C@@H]2O)O[C@H](CO)[C@@H](O)[C@@H]1O[C@@H]1O[C@H](CO)[C@H](O)[C@H](O)[C@H]1O` (some centres unmarked) [LNT, lacto-N-tetraose, reference compound], at Gal-7 (fast exchange, from average ∆δ vs ligand concentration, Gal-7, pH 6.9, 30 °C, read-out: KD), the Kd was approximately 500 µM.
Consider `CC(=O)N[C@H]1C(O)O[C@H](CO)[C@@H](O[C@@H]2O[C@H](CO)[C@H](O)[C@H](O)[C@H]2O)[C@@H]1O` (some centres unmarked) [LacNAc, N-acetyllactosamine, reference compound], for which the Kd in series [1] (fast exchange, from chemical shifts vs ligand concentration, Gal-3 FL 20 μM, pH 6.9, 30 °C, read-out: KD) amounted to 190 µM; in series [2] (fast exchange, from chemical shifts vs ligand concentration, Gal-3 CRD 20 μM, pH 6.9, 30 °C, read-out: KD) it was 380 µM.
With keratan sulfate [KS], the Kd in series [1] (2 μM × 17 sites, assumes the same stoichiometry as KSDS, Gal-3 FL, read-out: site-average microscopic KD) was 34 µM; in series [1] (apparent affinity/avidity from average ∆δ vs ligand concentration, 20 μM Gal-3 FL, 20 mM KPhos, pH 6.9, 30 °C, read-out: 50% change in chemical shift / 50% lectin bound (ligand concentration)) it was approximately 2 µM; in series [2] (7 μM × 22 sites, assumes the same stoichiometry as KSDS, Gal-3 CRD, read-out: site-average microscopic KD) it was 154 µM; in series [2] (apparent affinity/avidity from average ∆δ vs ligand concentration, 20 μM Gal-3 CRD, 20 mM KPhos, pH 6.9, 30 °C, read-out: 50% change in chemical shift / 50% lectin bound (ligand concentration)), approximately 7 µM; on Gal-7 (binding avidity estimated from average ∆δ vs glycosaminoglycan concentration, 20 μM Gal-7, pH 6.9, 30 °C, read-out: 50% Gal-7 loaded with ligand (ligand concentration)), approximately 4.5 µM. Further, the “binding stoichiometry, Gal-3 molecules per KS molecule” value in series [3] (D trend continues to Gal-3/KS molar ratio of ~6 to 8, both Gal-3 FL and CRD) is on record as not above 8. For the same compound, in series [3] (upon addition of one mole equivalent of Gal-3), the “decrease of KS D value” is given as “about 40%”. Besides, in series [4], the “diffusion coefficient D” value is on record as 0.92 × 10^–6 cm^2/s^-1.
